Test results taken from patent US9771430B2, “Method of treating a metabolic disorder induced by obesity in a subject in need thereof by administering MK2/3 inhibitors” (THE TRUSTEES OF COLUMBIA UNIVERSITY IN THE CITY OF NEW YORK, priority 2011, dated 2017).

Tests used:
CaMKII [1] = conditions: WT Mφs, 4 h, 5 μM
Method: Immunoblots of pThr287-CaMKII in FIG. 15A WT, Insr−/−, and ob/obMφs±FC loading or oxLDL and FIG. 15B WT Mφs±4 h treatment with 5 μM U0126 ERK inhibitor.

CREB = assay: PKA-mediated phosphorylation of CREB in hepatocytes; type: cell-based, mouse
Method: (§1) Immunoblot, immunoprecipitation, and immunostaining assays were performed as described (18). CRTC2, pCREB (Ser133), CREB, pAKT (Thr308), AKT, tubulin, HA, and FLAG antibodies were previously described (18). The antibodies anti-InsP3R1 (A302-158A) and InsP3R3 (A302-160A) were purchased from Bethyl Laboratories, anti-InsP3R2 (ab77838) from Abcam, anti-Calcineurin (610260) from BD Biosciences, anti-GRP78 (ADI-SPA-826-F) from Enzo Life Sciences, anti-phospho-PKA substrate (RRXS/T, 9624), anti-phospho-AKT substrate (RXXS/T, 9614) and CRTC2 (pS171, 2892) from Cell Signaling. CRTC2 (pS275) antibody was employed as described (19).

[2] = tested on: CRE-luciferase (luc) reporter; assay: CRE-luciferase reporter activity in primary hepatocytes; type: cell-based, mouse; conditions: response to glucagon
Method: (§2) HEK293T (ATCC) cells were cultured in DMEM containing 10% FBS (HyClone), […] penicillin-streptomycin. Mouse primary hepatocytes were isolated and cultured as previously described (18). Cellular fractionation studies were conducted as previously reported (18). For reporter studies, Ad-CRE-luc infected hepatocytes (1 pfu per cell) were exposed to glucagon (Gcg, 100 nM) for 2˜4 h. For cyclosporine A (CsA, 10 μM) or okadaic acid (OA, 100 nM) or cell permeable calcineurin autoinhibitory peptide (10 μM) or CN585 (100 μM) or Calyculin A (10 nM) or Xestospongin C (Xc, 2 μM) or H89 (30 μM) or BAPTA (50 μM) inhibition, hepatocytes were pre-treated with the inhibitors for one hour. Luciferase activities were normalized to β-galactosidase activity from adenoviral-encoded RSV β-gal. Calcineurin activity (test kit from Enzo Life Sciences) and cellular cAMP levels (test kit from Cayman Chemical Company) were measured according to manufacturer's instructions.

CaMKII [3] = type: cell-based, mouse
Method: FIG. 1A. CaMKII enzyme activity was assayed in triplicate wells of primary mouse HCs stimulated with 100 nM glucagon (Gluc) or vehicle control (Veh) for the indicated times (*P<0.05 and **P<0.01 vs. Veh; mean±S.E.M.). FIGS. 1B-1J. Extracts of HCs or liver were probed for phospho-CaMKII, total CaMKII, and β-actin by immunoblot assay. FIG. 1B. HCs were incubated with […] glucagon for the indicated times; FIG. 1C. Glucagon was added to HCs that were pre-treated for 1 h with vehicle control (Veh) or 5 μM BAPTA-AM; FIG. 1D. Glucagon was added to HCs that were pre-treated with 0.5 μM xestospongin (XesC) or to HCs from Ip3r1fl/fl mice transduced with adeno-LacZ control or adeno-Cre (bar graph=Ip3r1 mRNA levels); FIG. 1E. Glucagon was added to HCs that were pre-treated for 1 h with vehicle control (Veh) or 10 μM H89. FIG. 1F. […] FIGS. 1G-1J. In vivo experiments. In FIG. 1G, mice were treated for 30 min with 200 μg kg−1 body weight of glucagon i.p., and in FIG. 1H, mice were pre-treated with 10 pmol g−1 xestospongin C or vehicle control i.p. 4 days prior to glucagon treatment. In FIGS. 1I-1J, mice were fed ad libitum or fasted for 12 h, or fasted for 12 h and then re-fed for 4 h.
Total RNA was extracted from hepatocytes using the RNeasy kit (Qiagen). cDNA was synthesized from 2 μg total RNA using oligo (dT) and Superscript II (Invitrogen). Real-time qPCR analysis and western blotting were performed as previously described (Timmins et al., 2009). Nuclear extraction from liver was performed using the Nuclear Extraction Kit from Panomics according to the manufacturer's instructions.
(§3) Immunoblot and RT-qPCR assays were performed as previously described (Timmins et al., 2009). Total RNA was extracted from HCs using the RNeasy kit (Qiagen). cDNA was synthesized from 2 μg total RNA using oligo (dT) and Superscript II (Invitrogen). Nuclear extraction from liver was performed using the Nuclear Extraction Kit from Panomics according to the manufacturer's instructions.

CRTC2 = CRTC2 dephosphorylation and nuclear translocation in primary hepatocytes; type: cell-based, mouse; conditions: inhibitor pre-treatment 1 h, glucagon 100 nM
Method: as §2, §1

G6pc and Pck1 mRNA = G6pc and Pck1 mRNA (RT-qPCR) in primary mouse hepatocytes; type: cell-based
Method: FIG. 32A-E. Related to FIG. 26—p38. FIG. 32A Mice were fed ad libitum or fasted for 12 h. Liver phospho-p38, total p38, p-MK2, total MK-2, and β-actin were assayed by immunoblot. FIG. 32B WT HCs were serum-depleted overnight and then incubated for 5 h with 100 nm glucagon in serum-free media with or without SB202190; or glucagon was added to HCs from P38a^fl/fl mice treated with adeno-LacZ (control) or adeno-Cre. RNA was assayed for G6pc and Pck1 mRNA (*P<0.05; mean±S.E.M.). FIG. 32C HCs from fasting WT and Camk2g^−/− mice were assayed for p-p38, total p38, and β-actin. FIG. 32D WT mice were injected i.p. with 12.5 mg kg^−1 body weight of p38 inhibitor (SB202190) or vehicle control. 12 h later, the mice were injected with an additional dose of SB202190 and fasted overnight. The livers were assayed for nuclear FoxO1, nucleophosmin, p-MK2, total MK-2, and β-actin. The correlation between nuclear FoxO1 and p-MK2 band intensities is shown in the graph. FIG. 32E Adeno-GFP-FoxO1-transduced HCs were serum-depleted overnight, and then incubated for 5 h in serum-free media with SB202190 or vehicle (Veh) control. FoxO1 localization was assessed by indirect immunofluorescence (Bar, 10 μm; *P<0.05; mean±S.E.M.).
FIGS. 53A-B. MK-2 regulates hepatic FoxO1 subcellular localization and hepatic G6Pc and Pck1. FIG. 53A. Adeno-GFP-FoxO1-transduced HCs were serum-depleted overnight, and then incubated for 30 min in serum-free media with 2 uM MK-2 inhibitor or vehicle (Veh) control. FoxO1 localization was assessed by indirect immunofluorescence (Bar, […]; *P<0.005; mean±S.E.M.). FIG. 53B WT HCs were serum-depleted overnight and then incubated for 5 h with 100 nm glucagon in serum-free media with or without MK-2 inhibitor. RNA was assayed for G6pc and Pck1 mRNA (*P<0.005; mean±S.E.M.). MK-2 Inhibitor is from Calbiochem (cat#475864): 2-(2-Quinolin-3-ylpyridin-4-yl)-1,5,6,7-tetrahydro-4H-pyrrolo-[3,2-c]pyridin-4-one.
FIG. 69. MK-2 inhibitor suppresses forskolin-induced Pck1 and G6Pc induction in primary hepatocytes. Primary hepatocytes from WT mice were serum-depleted overnight and then pre-treated with 300 nM MK-2 inhibitor (compound 28) or vehicle for 1 h. Cells were then treated with 2 μM forskolin in serum-free media with or without the inhibitor for 4 h. RNA was assayed for G6pc and Pck1 mRNA by RT-qPCR. *, P<0.0001.
Primary mouse HCs were isolated from 8- to 12-week-old mice as described previously (Matsumoto et al., 2002). For most experiments, the HCs were serum-depleted overnight by incubation in medium containing 0.5% fetal calf serum and were then incubated for 5 h in serum-free media, with individual treatments noted in the figure legends. HCs were transduced with adenoviral constructs 12 h after plating, and experiments were conducted 24 h after transduction. Transfections with WT, 7A- and 9A-Foxo1 were carried out using jetPEI™-hepatocyte DNA transfection reagent (Polyplus-transfection, Inc.) according to manufacturer's instructions.
as §3, with “instructions. […] Whether their origin is alternative splicing or post-translational modification remains to be determined.” for “instructions.”

p42 MAP kinase = p42 MAP kinase (Homo sapiens, UniProt P28482); conditions: at 100 μM; cited from earlier work
JNK = conditions: at 100 μM; cited from earlier work
FoxO1 [4] = assay: FoxO1 subcellular localization in primary mouse hepatocytes; type: cell-based; conditions: HCs treated with glucagon
Method: FIG. 24A HCs from WT and Camk2g^−/− mice were transduced with an adenovirus expressing murine GFP-FoxO1 at an MOI of 2. Cells were serum-depleted overnight and then incubated for 5 h in serum-free media. FoxO1 subcellular localization was assessed by indirect immunofluorescence. Bar, 10 μm. Data are quantified in the right panel. (^#P<0.0005; mean±S.E.M.). FIG. 24B HCs were transduced with adenoviral vectors expressing LacZ, CA-CaMKII, or KD-CaMKII at an MOI of 20 and then transduced 4 h later with adeno-GFP-FoxO1, followed by fluorescence microscopy and quantification as in FIG. 24A (^#P<0.005 vs. LacZ; mean±S.E.M.). Bar, 5 μm. FIG. 24C HCs were transduced with adeno-LacZ or CA-CaMKII and then adeno-GFP-FoxO1 as in FIG. 24B. After incubation in serum-depleted medium o.n. and then serum-free medium for 5 h, the cells were treated with 100 nM insulin for the indicated times. FoxO1 subcellular localization was quantified as in FIG. 24B (*P<0.005 vs. LacZ in each group; mean±S.E.M.).
Primary hepatocytes from WT mice were transduced with adeno-LacZ (LacZ) or adeno-DN-MK2 (DN-MK2) at an MOI of 1. […]

FoxO1 [5] = assay: Nuclear FoxO1 in mouse liver (immunoblot of nuclear extracts); type: in vivo; conditions: fasting mice, 12.5 mg kg−1 i.p., two doses
Method: FIGS. 24A-D. CaMKII regulates hepatic FoxO1 subcellular localization. FIG. 24A HCs from WT and Camk2g^−/− mice were transduced with an adenovirus expressing murine GFP-FoxO1 at an MOI of 2. Cells were serum-depleted overnight and then incubated for 5 h in serum-free media. FoxO1 subcellular localization was assessed by indirect immunofluorescence. Bar, 10 μm. Data are quantified in the right panel. (^#P<0.0005; mean±S.E.M.). […] Bar, 5 μm. FIG. 24C HCs were transduced with adeno-LacZ or CA-CaMKII and then adeno-GFP-FoxO1 as in FIG. 24B. After incubation in serum-depleted medium o.n. and then serum-free medium for 5 h, the cells were treated with 100 nM insulin for the indicated times. FoxO1 subcellular localization was quantified as in FIG. 24B (*P<0.005 vs. LacZ in each group; mean±S.E.M.).
FIG. 32A-E. Related to FIG. 26—p38. FIG. 32A Mice were fed ad libitum or fasted for 12 h. Liver phospho-p38, total p38, p-MK2, total MK-2, and β-actin were assayed by immunoblot. […] FoxO1 localization was assessed by indirect immunofluorescence (Bar, 10 μm; *P<0.05; mean±S.E.M.).
Immunoblot and RT-qPCR assays were performed as previously described (Timmins et al., 2009). […] Whether their origin is alternative splicing or post-translational modification remains to be determined.

[6] = tested on: InsP3R1, InsP3R2 and InsP3R3; assay: InsP3R phosphorylation in hepatocytes (phospho-substrate antiserum immunoblot); type: cell-based, mouse; conditions: phospho-AKT substrate antiserum
calcineurin = assay: Calcineurin activity in primary hepatocytes; type: cell-based, mouse; conditions: cells expressing wild-type InsP3R1
Method: as §2

cytosolic free calcium = assay: Calcium mobilization in primary hepatocytes (Fura-2 imaging); type: cell-based, mouse; conditions: cells expressing wild-type InsP3R1
Method: Mouse primary hepatocytes were plated on glass coverslips and loaded with 5 μM Fura-2 acetoxymethyl ester (Molecular Probes) in the presence of 0.025% (w/v) pluronic F127 (Sigma-Aldrich) in Media 199 (Mediatech) for 30 minutes. […] The ratio of fluorescence intensity at the two excitation wavelengths was calculated after subtracting background fluorescence. [Ca2+]I (cytosolic free calcium concentration) was calculated using a Fura-2 calcium imaging calibration kit (Invitrogen). Images were collected and analyzed using the MetaFluor software package (Universal Imaging Corp.). Graphs represent average responses from groups of 30-40 individual cells from representative single experiments. Bar graphs represent average responses (fold over average baseline) from 150-200 cells per condition. All experiments were repeated at least three times with similar results.

Sequence of p42 MAP kinase (P28482 whole entry): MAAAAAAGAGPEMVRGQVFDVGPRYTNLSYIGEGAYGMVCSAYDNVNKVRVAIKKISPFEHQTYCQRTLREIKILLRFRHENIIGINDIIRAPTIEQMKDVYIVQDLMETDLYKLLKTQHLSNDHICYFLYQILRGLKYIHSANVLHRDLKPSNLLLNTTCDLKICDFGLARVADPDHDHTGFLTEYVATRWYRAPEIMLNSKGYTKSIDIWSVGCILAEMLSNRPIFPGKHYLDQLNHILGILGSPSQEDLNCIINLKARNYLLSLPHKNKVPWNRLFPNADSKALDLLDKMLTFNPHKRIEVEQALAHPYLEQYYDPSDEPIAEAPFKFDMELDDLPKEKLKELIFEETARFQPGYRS

Q: With `N#CC(=C(/N)Sc1ccccc1N)/C(C#N)=C(\N)Sc1ccccc1N` [U0126] as the molecule, how does the p-CaMKII (CaMKII [1]) read?
A: Its p-CaMKII is “increase”.

Q: Which results are given for `CC(=O)OCOC(=O)CN(CC(=O)OCOC(C)=O)c1ccccc1OCCOc1ccccc1N(CC(=O)OCOC(C)=O)CC(=O)OCOC(C)=O` [BAPTA-AM, 1,2-bis[2-aminophenoxy]ethane-N,N,N′,N′-tetraacetic acid tetrakis[acetoxymethyl ester]]?
A: PKA-mediated phosphorylation of CREB in response to glucagon (CREB): did not block; CRE-luciferase (luc) reporter activity / activation [2]: disrupted; glucagon-induced CaMKII phosphorylation (CaMKII [3]; HCs pre-treated with inhibitor, then glucagon): markedly decreased; glucagon-induced dephosphorylation (and nuclear translocation) of CRTC2 (CRTC2): disrupted

Q: Which “nuclear FoxO1 and induction of genes involved in hepatic glucose production” value (G6pc and Pck1 mRNA; 2 uM MK-2 inhibitor, glucagon 100 nm 5 h (FIG. 53)) does the source give for `O=C1NCCc2[nH]c(-c3ccnc(-c4cnc5ccccc5c4)c3)cc21` [MK2 inhibitor, 2-(2-Quinolin-3-ylpyridin-4-yl)-1,5,6,7-tetrahydro-4H-pyrrolo-[3,2-c]pyridin-4-one] here?
A: The value was “importance of MK2 in both nuclear FoxO1 and in induction of genes”.

Q: With `C[S+]([O-])c1ccc(-c2nc(-c3ccncc3)c(-c3ccc(F)cc3)[nH]2)cc1` (stereo not drawn) [SB203580] as the molecule, how does the “inhibition of p42 MAP kinase” value (p42 MAP kinase) read?
A: Its value is “does not significantly inhibit”.

Q: What about the “inhibition of JNK” value (JNK) of the same molecule?
A: Its value is “does not significantly inhibit”.

Q: Which “G6pc mRNA, untreated WT HCs lower than forskolin-treated WT HCs” value (G6pc and Pck1 mRNA; forskolin 10 μM) does the source give for `C=C[C@@]1(C)CC(=O)[C@]2(O)[C@@]3(C)[C@@H](O)CCC(C)(C)[C@@H]3[C@H](O)[C@H](OC(C)=O)[C@@]2(C)O1` [forskolin] here?
A: Its value is ~165 fold.

Q: What about the “Pck1 mRNA, untreated WT HCs lower than forskolin-treated WT HCs” value (G6pc and Pck1 mRNA; forskolin 10 μM) of the same molecule?
A: Its value is ~2500 fold.

Q: With `C=C1[C@@H](O)[C@@H]2O[C@]3(CC[C@H](/C=C/[C@@H](C)[C@@H]4CC(C)=C[C@@]5(O[C@H](C[C@@](C)(O)C(=O)O)CC[C@H]5O)O4)O3)CC[C@H]2O[C@@H]1[C@@H](O)C[C@H](C)[C@H]1O[C@@]2(CCCCO2)CC[C@H]1C` [okadaic acid] as the molecule, how does the “glucagon-induced dephosphorylation (and nuclear translocation) of CRTC2” value (CRTC2) read?
A: The value was “did not”.

Q: For `Oc1ccc(-c2nc(-c3ccncc3)c(-c3ccc(F)cc3)[nH]2)cc1` [SB202190], which “expression of G6pc and Pck1” value (G6pc and Pck1 mRNA; glucagon-stimulated HC) is on record?
A: The value was “blocked”.

Q: And the “nuclear GFP-FoxO1” value (FoxO1 [4])?
A: Its value is “decreased”.

Q: What about the “nuclear FoxO1 in liver as a function of p38 inhibition (p-MK2)” value (FoxO1 [5]) of the same molecule?
A: The value was “clear decrease”.

Q: Which InsP3R phosphorylation [6] does the source give for insulin: hormone here?
A: The InsP3R phosphorylation was “increased”.

Q: What about the “glucagon-dependent increases in calcineurin activation” value (calcineurin) of the same molecule?
A: Its value is “reduced”.

Q: What about the “glucagon-dependent increases in calcium mobilization” value (cytosolic free calcium) of the same molecule?
A: The value was “reduced”.

Q: Which “p-CaMKIIγ in HCs” value (CaMKII [3]; ER stress activation) does the source give for `C1CNC1` [azetidine] here?
A: The value was “increased”.
